Laboratory results reported in patent US7981878B2, “Tumor treatment with gliotoxin derivatives” (priority 2005, dated 2011).

Experiments:
Notch2 (N2^IC) = test: Nuclear Notch2 activity in B-CLL cells by EMSA (band shift assay); assay type: cell-based, human; settings: B-CLL cell cultures incubated with 50 nM Dapt
Experimental: FIG. 3: Gliotoxin is a potent Notch2 trans-activation inhibitor in B-CLL cells. (A) EMSA showing the inhibition of DNA-bound Notch2IC complexes in the presence of 0.2 μg Gliotoxin. B-CLL samples (n=10) were cultured in the presence of 1 ng/ml TPA with or without 0.2 μM Gliotoxin for 24 hours. Nuclear extracts were subjected to EMSA using a oligonucleotide probe spanning a well defined CBF1/NotchIC binding site derived from the CD23a promoter. (B). Corresponding FACS analysis (plus 10 additional B-CLL samples) showing the downregulation of the Notch2 target gene CD23 as well as the induction of apoptosis of Gliotoxin treated B-CLL samples. Columnes represent the percentage of CD19^+CD23^+ (grey bars) and apoptotic cells (black bars: including early apoptotic cells single positive for AnnexinV, and late apoptotic cells double positive for AnnexinV and probidium iodide), respectively.
As drug screening model, a cell culture system was established which conserves the phenotype of freshly isolated B-CLL cells (3×10^6 B-CLL cells/ml RPMI medium+10% FCS, supplemented with 1 ng/ml of TPA). Notch2 activity in the cell nucleus is determined by means of EMSA (electrophoretic mobility shift assay) experiments, and the cell viability (Probidium iodide/annexinV) and CD23 expression (Notch2 target gene) is determined by means of FACS (flow cytometry) analyses, respectively. […]

γ-secretase = γ-secretase inhibitor; cited from earlier work
[1] = test system: K 562, U 937, HCT-15, HCT-116, SW946, LX-1, P 388, colon-26 cell lines; settings: as indicated in EP 926 242 A1; cited from earlier work

Molecule | influence on the activity of N2^IC (Notch2 (N2^IC)) | IC50 (γ-secretase) | efficacy against tumour cell lines [1]
C[C@H](NC(=O)Cc1cc(F)cc(F)c1)C(=O)N[C@H](C(=O)OC(C)(C)C)c1ccccc1 [Dapt, reference compound] | no influence | 5 to 10 nM | 
acetylgliotoxin |  |  | effective
